“And” between values parts separate entries of the source, which are not always exact repeats. Equal entries are not always repeated.
Tests used:
[1] = target: bovine heart mitochondrial membranes (complex I) (Bos taurus, UniProt P03887+P03898+P17694+P42026); assay: NADH:O2 oxidoreduction by bovine heart mitochondrial membranes (complexes I-III-IV); format: biochemical
Procedure: (§1) Complex I and mitochondrial membranes were prepared from Bos taurus (bovine) heart. Intact mitochondria were isolated from rat liver and mouse heart and liver. Membranes were prepared from mouse heart mitochondria by 5 s bursts of sonication at 4 °C and collected by centrifugation (75,000 × g, 1 h).
(§2) Assays were performed at 32 °C in a SpectraMax 96-well plate reader. NADH:decylubiquinone oxidoreduction by complex I at 0.5 μg mL^−1 was measured in 20 mM Tris-HCl (pH 7.2), 0.15 % soy bean asolectin (Avanti Polar Lipids), and 0.15 % 3-((3-cholamidopropyl)dimethylammonium)-1-propanesulfonate (CHAPS, Merck Chemicals Ltd), with 200 μM decylubiquinone and 200 μM NADH, and monitored using ε340–380(NADH) = 4.81 mM^−1 cm^−1 [23]. Catalysis was initiated by addition of NADH and maximal rates determined by linear regression. NADH:O2 oxidoreduction by membranes was measured similarly but using 5 μg mL^−1 membranes in 10 mM Tris-HCl (pH 7.4) and 250 mM sucrose using 200 μM NADH and supplemented with 0.15 mM horse heart cytochrome c (Sigma-Aldrich Ltd.). Succinate:O2 oxidoreduction was measured using 40 μg mL^−1 membranes in 5 mM succinate in 10 mM Tris-HCl (pH 7.4) as described previously. Control experiments included NaCl (to match the ionic strength) or DMSO, as appropriate.
(§3) Experimental values are reported as mean averages ± standard deviation (SD) of technical replicates for large sample sizes and mean averages ± standard error of the mean (SEM) of technical replicates for small sample sizes. Data were analyzed by the unpaired two-tailed Student’s t test. IC50 values were determined using the standard dose-effect relationship (activity (%) = 100 × IC50 / (IC50 + [inhibitor]^m) with the Hill Slope (m) set to unity for purified complex I) and are reported with 95 % confidence intervals.

[2] = target: mouse heart mitochondrial membranes (complex I) (Mus musculus, UniProt P03888+P03899+Q91WD5+Q9DC70); assay: NADH:O2 oxidoreduction by mouse heart mitochondrial membranes; format: biochemical
Procedure: as §1, §2, §3

permeabilized MDBK cells = assay: ADP-stimulated rotenone-sensitive OCR in permeabilized MDBK cells; format: cell-based, Bos taurus; parameters: rotenone sensitive OCR after ADP stimulation, average / rotenone sensitive OCR after ADP stimulation: unit not given here; settings: MDBK permeabilised cells; for rotenone sensitive OCR after ADP stimulation, % of control, average / rotenone sensitive OCR after ADP stimulation, average: average of replicates
Procedure: For permeabilized cell experiments, cells were seeded into XF96 plates at 0.9–1.1 × 10^4 per well and incubated for 48 h at 37 °C in 5 % CO2. Then, the growth medium was exchanged for assay buffer containing 3 nM plasma membrane permeabilizer ‘PMP’ (Seahorse Biosciences Inc.), 10 mM glutamate, 10 mM malate, 220 mM mannitol, 70 mM sucrose, 10 mM KH2PO4, 5 mM MgCl2, 1 mM EGTA, 0.2 % fatty acid-free bovine serum albumin (BSA), and 2 mM HEPES (pH 7.4 at 37 °C). […] The biguanides were allowed to accumulate for 30 min, then respiration was […] by the addition of 4 mM ADP. Rotenone was added (2 μM) at the end of the experiment.
Rotenone-sensitive OCRs were calculated by subtracting the rotenone-insensitive rates (determined at the end of the experiment). OCRs were normalized by dividing by the OCR recorded immediately prior to the addition of biguanide. For rate of uptake calculations, the OCRs at time points after biguanide addition were divided by the OCRs at the same time points in control experiments. Data from wells with failed port injections were excluded from the analyses. The respiratory control ratio (RCR) values (state III versus state IV respiration) were ~11 and ~6 for permeabilized MDBK and 143B cells, respectively.

rat liver mitochondria = assay: ADP-stimulated rotenone-sensitive OCR in isolated rat liver mitochondria; format: biochemical; parameters: rotenone sensitive OCR after ADP stimulation, individual replicates / rotenone sensitive OCR after ADP stimulation, average: unit not given here
Procedure: as §1
Isolated mitochondria were monitored using a Seahorse XF96 extracellular flux analyzer at 32 °C. Mouse heart mitochondria, and mouse and rat liver mitochondria were plated into XF96 plates at 4 and 16–20 μg per well, respectively, in 220 mM mannitol, 70 mM sucrose, 10 mM KH2PO4, 5 mM MgCl2, 1 mM EGTA, 0.2 % fatty acid-free BSA, and 2 mM HEPES (pH 7.4 at 37 °C) with 10 mM glutamate and 10 mM malate and adhered by centrifugation (2000 × g, 20 min, 4 °C). The medium was supplemented with a further 5 mM glutamate and 5 mM malate and the mitochondria incubated for 15 min. Then two baseline readings were taken before the biguanides were added at IC50/5. Biguanides were allowed to accumulate for 15–20 min before respiration was […] by the addition of 4 mM ADP. Rotenone (2 μM) was added at the end of the experiment. Data from wells with failed port injections were excluded from the analyses. The RCR values (state III versus state IV respiration) were 3.4, 4.8, and 4.6 for mouse heart, rat liver, and mouse liver, respectively.

[3] = individual replicates, biguanide at IC50/5

Chain of mouse heart mitochondrial membranes (complex I) (P03899 whole entry): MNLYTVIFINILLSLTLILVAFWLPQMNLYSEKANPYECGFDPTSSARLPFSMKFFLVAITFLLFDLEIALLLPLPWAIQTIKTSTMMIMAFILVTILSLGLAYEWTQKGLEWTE
Chain of mouse heart mitochondrial membranes (complex I) (P03888 whole entry): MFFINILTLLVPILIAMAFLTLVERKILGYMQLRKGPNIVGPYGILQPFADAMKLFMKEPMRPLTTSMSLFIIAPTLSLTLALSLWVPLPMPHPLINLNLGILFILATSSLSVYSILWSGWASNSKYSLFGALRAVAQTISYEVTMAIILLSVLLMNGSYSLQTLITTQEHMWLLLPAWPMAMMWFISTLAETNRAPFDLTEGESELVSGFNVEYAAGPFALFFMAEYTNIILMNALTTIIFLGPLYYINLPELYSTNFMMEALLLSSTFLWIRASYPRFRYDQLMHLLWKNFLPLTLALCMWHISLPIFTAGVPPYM
Chain of mouse heart mitochondrial membranes (complex I) (Q9DC70 36-224): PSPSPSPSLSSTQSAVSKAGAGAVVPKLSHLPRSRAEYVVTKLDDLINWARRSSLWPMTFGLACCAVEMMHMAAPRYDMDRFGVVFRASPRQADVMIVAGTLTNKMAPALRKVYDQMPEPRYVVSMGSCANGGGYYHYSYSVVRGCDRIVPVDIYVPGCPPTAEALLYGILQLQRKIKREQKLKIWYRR
Chain of mouse heart mitochondrial membranes (complex I) (Q91WD5 34-463): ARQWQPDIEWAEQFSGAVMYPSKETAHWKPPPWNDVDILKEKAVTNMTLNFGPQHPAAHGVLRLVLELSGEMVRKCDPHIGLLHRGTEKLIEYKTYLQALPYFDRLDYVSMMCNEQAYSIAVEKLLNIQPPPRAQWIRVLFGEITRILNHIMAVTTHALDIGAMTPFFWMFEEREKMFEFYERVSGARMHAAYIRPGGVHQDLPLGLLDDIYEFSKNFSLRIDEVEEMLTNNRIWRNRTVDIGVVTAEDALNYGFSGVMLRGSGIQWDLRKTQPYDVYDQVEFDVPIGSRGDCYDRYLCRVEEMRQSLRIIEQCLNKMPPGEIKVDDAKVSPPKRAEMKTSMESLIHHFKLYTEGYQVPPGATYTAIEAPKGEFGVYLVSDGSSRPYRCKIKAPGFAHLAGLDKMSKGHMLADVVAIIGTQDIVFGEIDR
Chain of bovine heart mitochondrial membranes (complex I) (P42026 38-216): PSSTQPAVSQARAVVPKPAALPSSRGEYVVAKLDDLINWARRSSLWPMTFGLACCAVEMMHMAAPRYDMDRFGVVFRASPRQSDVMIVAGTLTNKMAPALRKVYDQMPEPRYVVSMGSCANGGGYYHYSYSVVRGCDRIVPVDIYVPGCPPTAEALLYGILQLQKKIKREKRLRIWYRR
Chain of bovine heart mitochondrial membranes (complex I) (P17694 34-463): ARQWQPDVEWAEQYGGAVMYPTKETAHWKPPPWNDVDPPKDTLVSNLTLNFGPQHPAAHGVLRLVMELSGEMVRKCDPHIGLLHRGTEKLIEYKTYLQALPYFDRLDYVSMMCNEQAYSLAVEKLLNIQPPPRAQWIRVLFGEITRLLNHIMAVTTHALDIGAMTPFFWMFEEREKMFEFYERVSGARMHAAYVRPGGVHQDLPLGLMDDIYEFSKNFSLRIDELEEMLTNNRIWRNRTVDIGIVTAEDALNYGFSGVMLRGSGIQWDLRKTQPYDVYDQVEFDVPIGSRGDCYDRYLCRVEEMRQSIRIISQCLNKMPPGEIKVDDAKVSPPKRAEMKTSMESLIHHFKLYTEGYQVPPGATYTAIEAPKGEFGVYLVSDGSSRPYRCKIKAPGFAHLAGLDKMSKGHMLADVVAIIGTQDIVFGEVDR
Chain of bovine heart mitochondrial membranes (complex I) (P03887 whole entry): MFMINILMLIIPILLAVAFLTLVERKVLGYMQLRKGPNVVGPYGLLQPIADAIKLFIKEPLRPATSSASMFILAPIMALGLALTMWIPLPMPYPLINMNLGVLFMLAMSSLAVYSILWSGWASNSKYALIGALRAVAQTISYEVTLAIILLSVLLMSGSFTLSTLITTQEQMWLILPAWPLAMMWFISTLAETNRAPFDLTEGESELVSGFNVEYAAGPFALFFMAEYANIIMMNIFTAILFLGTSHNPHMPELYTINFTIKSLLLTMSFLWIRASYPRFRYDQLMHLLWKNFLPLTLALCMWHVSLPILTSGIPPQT
Chain of bovine heart mitochondrial membranes (complex I) (P03898 whole entry): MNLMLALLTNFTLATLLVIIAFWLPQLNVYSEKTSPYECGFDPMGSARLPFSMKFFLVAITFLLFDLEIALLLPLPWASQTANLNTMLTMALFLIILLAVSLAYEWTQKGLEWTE

Structure (SMILES): NC(N)=NC(N)=NCCc1ccc(Cl)cc1 [compound 1, 2-[2-(4-chlorophenyl)ethyl]-1-(diaminomethylidene)guanidine]
- remaining activity at 25 µM ([1]; bovine heart mitochondrial membranes, inhibitor 0.025 mM, read-out: average % (rate, % of no-inhibitor control)): 91.4%
- remaining activity at 50 µM ([1]; bovine heart mitochondrial membranes, inhibitor 0.05 mM, read-out: average % (rate, % of no-inhibitor control)): 77.5%
- remaining activity at 120 µM ([1]; bovine heart mitochondrial membranes, inhibitor 0.12 mM, read-out: average % (rate, % of no-inhibitor control)): 66.8%
- remaining activity at 250 µM ([1]; bovine heart mitochondrial membranes, inhibitor 0.25 mM, read-out: average % (rate, % of no-inhibitor control)): 57.4%
- remaining activity at 500 µM ([1]; bovine heart mitochondrial membranes, inhibitor 0.50 mM, read-out: average % (rate, % of no-inhibitor control)): 44.1%
- remaining activity at 1000 µM ([1]; bovine heart mitochondrial membranes, inhibitor 1.00 mM, read-out: average % (rate, % of no-inhibitor control)): 35.1%
- remaining activity at 2000 µM ([1]; bovine heart mitochondrial membranes, inhibitor 2.00 mM, read-out: average % (rate, % of no-inhibitor control)): 28.9%
- LogIC50 (best fit value) ([1]; log of concentration in mM, sample given as Bovine heart mitochondrial membranes, Prism variable slope fit, Bottom 0, Top 100): -0.4001
- IC50 ([1]; sample given as Bovine heart mitochondrial membranes, Prism log(inhibitor) vs. response variable slope fit (four parameters), Bottom 0, Top 100, read-out: IC50 (best fit value)): 398 µM
- HillSlope (best fit value) ([1]; sample given as Bovine heart mitochondrial membranes, Prism variable slope fit, Bottom 0, Top 100): -0.6555
- HillSlope (best fit value) ([2]; Prism variable slope fit): -0.8311
- IC50 ([2]; Prism variable slope fit, Bottom 0, Top 100, read-out: IC50 (best fit value)): 465 µM
- remaining activity at 130 µM ([2]; inhibitor 0.13 mM, read-out: average % (rate, % of no-inhibitor control)): 75.2%
- remaining activity at 250 µM ([2]; inhibitor 0.25 mM, read-out: average % (rate, % of no-inhibitor control)): 62.1%
- remaining activity at 500 µM ([2]; inhibitor 0.50 mM, read-out: average % (rate, % of no-inhibitor control)): 47.6%
- remaining activity at 1000 µM ([2]; inhibitor 1.00 mM, read-out: average % (rate, % of no-inhibitor control)): 36.7%
- remaining activity at 2500 µM ([2]; inhibitor 2.50 mM, read-out: average % (rate, % of no-inhibitor control)): 19.7%
- remaining activity at 5000 µM ([2]; inhibitor 5.00 mM, read-out: average % (rate, % of no-inhibitor control)): 9.86%
- remaining activity at 10000 µM ([2]; inhibitor 10.00 mM, read-out: average % (rate, % of no-inhibitor control)): 8.63%
- LogIC50 (best fit value) ([2]; log of IC50 in mM, Prism variable slope fit): -0.3323
- rotenone sensitive OCR after ADP stimulation, % of control, average (permeabilized MDBK cells): 20.60 % of control
- rotenone sensitive OCR after ADP stimulation, average (permeabilized MDBK cells): 58.06
- rotenone sensitive OCR after ADP stimulation, % of control, average (permeabilized MDBK cells; biguanide at IC50/5): 20.60 % of control
- rotenone sensitive OCR after ADP stimulation, average (permeabilized MDBK cells; biguanide at IC50/5): 58.06
- rotenone sensitive OCR after ADP stimulation (permeabilized MDBK cells; [3]): 88.38 and 76.77 and 21.79 and 44.14 and 38.29 and 53.63 and 83.42
- rotenone sensitive OCR after ADP stimulation, % of control (permeabilized MDBK cells; [3]): 31.36 % of control and 27.24 % of control and 7.73 % of control and 15.66 % of control and 13.59 % of control and 19.03 % of control and 29.60 % of control
- rotenone sensitive OCR after ADP stimulation, % of control, average (rat liver mitochondria; average of replicates): 55.19 % of control
- rotenone sensitive OCR after ADP stimulation, average (rat liver mitochondria; average of replicates): 15.13
- rotenone sensitive OCR after ADP stimulation, % of control, individual replicates (rat liver mitochondria; replicate 1-5): 67.97 % of control and 49.70 % of control and 53.49 % of control and 49.59 % of control
- rotenone sensitive OCR after ADP stimulation, individual replicates (rat liver mitochondria; replicate 1-5): 18.64 and 13.63 and 14.67 and 13.60

From publication PMC4977651, “Molecular features of biguanides required for targeting of mitochondrial respiratory complex I and activation of AMP-kinase” (BMC Biology, 2016)
